Tested on: cerebral cortex slice
Experiment: Glutamate liberation inhibitory activity in cerebral cortex slice
Assay type: cell-based, SD rat
Settings: 10⁻⁴ M test compound; rat cerebral cortex slice, 30 min pre-incubation, then 50 mM KCl for 60 min; glutamate determined by HPLC, relative to solvent control
Protocol: Glutamate liberation inhibitory activity in cerebral cortex slice
A male SD rat was decapitated, and cerebral cortices on both sides were then extirpated to prepare a slice having a thickness of 750 µm (weight: 10 to 20 mg) with a McIlwain tissue chopper. The slice was incubated in a Krebs-Henseleit liquid containing a test compound in the form of a solution thereof for 30 minutes. Then the slice was incubated in one ml of a Krebs-Henseleit liquid containing 50 mM of KCl and the test compound solution for 60 mins. For control, a solvent was added to a Krebs-Henseleit liquid containing only 50 mM of KCl.
The glutamate liberated in the solution was determined by HPLC, and the glutamate liberation inhibitory activity (%) in 10⁻⁴ M of each test compound solution was calculated by the following equation: (1 -(glutamate in each test compound solution)/(amount of glutamate in control group)) x 100 [formula]

`O=C(CN1CCC(Oc2ccc(F)cc2)CC1)c1ccc2ccccc2c1` [compd. of Ex. 3] was tested, and the “glutamate liberation inhibitory activity (%) 1 x 10⁻⁴ M” value was 49%.

Source: patent EP0318029B1, “Cyclic amine and pharmacological composition” (Eisai Co., Ltd., priority 1987, dated 1989)
